In patent US20150105252A1, “SUBSTITUTED PYRAZOLES AS HERBICIDES” (E I DU PONT DE NEMOURS AND COMPANY, priority 2013, published 2015):

How the values were obtained:
[1] = tested on: sedge, umbrella; test: Test B flood; format: in vivo, Cyperus difformis; conditions: 250 g ai/ha, visual rating on 0 to 100 scale (0 no effect, 100 complete control), 13 to 15 days
Procedure, shortened: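 Plants were grown to the 2-leaf stage, then pots were flooded to 3 cm above the soil and compounds were applied directly into the paddy water. Water depth was held for the whole test; after 13 to 15 days in a greenhouse, injury was visually rated against untreated controls (0 = no effect, 100 = complete control).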

[2] = tested on: velvetleaf; test: Test A preemergence; format: in vivo, Abutilon theophrasti; conditions: 0 to 100 scale
Procedure, shortened: (§1)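 After sowing in a sand–loam mix, pots received compound preemergence by directed soil spray, or postemergence once plants reached the one- to two-leaf stage (2–10 cm). Formulation contained surfactant in a non-phytotoxic solvent. Injury was scored visually after ~10 greenhouse days, 0–100 scale.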

[3] = tested on: ragweed; test: Test C preemergence; format: in vivo, Ambrosia elation
Procedure, shortened: (§2)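 Greenhouse pot test: preemergence application onto freshly seeded loam/sand mix, postemergence application onto seedlings (1–4 leaves, 2–18 cm) in peat-vermiculite substrate. Responses scored visually 13 to 15 days later relative to controls, where 0 means no effect and 100 means complete control; a dash indicates no result.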

[4] = tested on: blackgrass; test: Test C postemergence; format: in vivo, Alopecurus myosuroides; conditions: for Plant response rating (scale of 0 to 100), Blackgrass: 16 g ai/ha; for Blackgrass plant response rating: scale 0 to 100; for Plant response rating (scale of 0 to 100 where 0 is no effect and 100 is complete control), Blackgrass: visually evaluated after 13 to 15 days
Procedure, shortened: as §2

[5] = tested on: wheat; test: Test A preemergence; format: in vivo, Triticum aestivum; conditions: preemergence
Procedure, shortened: as §1

[6] = tested on: corn; test: Test C preemergence; format: in vivo, Zea mays
Procedure, shortened: as §2

[7] = tested on: johnsongrass; test: Test C preemergence; format: in vivo, Sorghum halepense
Procedure, shortened: as §2

[8] = tested on: crabgrass, large; test: Test C postemergence; format: in vivo, Digitaria sanguinalis; conditions: for Plant response rating (scale of 0 to 100), Crabgrass, Large: 16 g ai/ha; for Crabgrass, Large plant response rating: scale 0 to 100; for Plant response rating (scale of 0 to 100 where 0 is no effect and 100 is complete control), Crabgrass, Large: visually evaluated after 13 to 15 days
Procedure, shortened: as §2

[9] = tested on: foxtail, giant; test: Test A postemergence; format: in vivo, Setaria faberii
Procedure, shortened: as §1

[10] = tested on: foxtail, giant; test: Test C postemergence; format: in vivo, Setaria faberii; conditions: for Plant response rating (scale of 0 to 100), Foxtail, Giant: 16 g ai/ha; for Foxtail, Giant plant response rating: scale 0 to 100; for Plant response rating (scale of 0 to 100 where 0 is no effect and 100 is complete control), Foxtail, Giant: visually evaluated after 13 to 15 days
Procedure, shortened: as §2

[11] = tested on: crabgrass, large; test: Test A preemergence; format: in vivo, Digitaria sanguinalis; conditions: 0 to 100 scale
Procedure, shortened: as §1

[12] = tested on: waterhemp; test: Test C postemergence; format: in vivo, Amaranthus rudis; conditions: for Waterhemp plant response rating / Plant response rating, Waterhemp: postemergence; for Waterhemp plant response rating: 62 g ai/ha, scale 0 to 100; for Plant response rating (scale of 0 to 100 where 0 is no effect and 100 is complete control), Waterhemp: 31 g ai/ha, visually evaluated after 13 to 15 days
Excerpt: Seeds of plant species selected from blackgrass (Alopecurus myosuroides), ryegrass, Italian (Italian ryegrass, Lolium multiflorum), wheat (winter wheat, Triticum aestivum), galium (catchweed bedstraw, Galium aparine), corn (Zea mays), crabgrass, large (large crabgrass, Digitaria sanguinalis), foxtail, giant (giant foxtail, Setaria faberii), johnsongrass (Sorghum halepense), lambsquarters (Chenopodium album), morningglory (Ipomoea coccinea), nutsedge, yellow (yellow nutsedge, Cyperus esculentus), pigweed (redroot pigweed, Amaranthus retroflexus), ragweed (common ragweed, Ambrosia elation), soybean (Glycine max), barnyardgrass (Echinochloa crus-galli), oilseed rape (Brassica napus), waterhemp (common waterhemp, Amaranthus rudis), oat, wild (wild oat, Avena fatua), kochia (Kochia scoparia), Surinam grass (Brachiaria decumbens), foxtail, green (green foxtail, Setaria viridis), goosegrass (Eleusine indica), bromegrass, downy (downy bromegrass, Bromus tectorum), nightshade (eastern black nightshade, Solanum ptycanthum), cocklebur (common cocklebur, Xanthium strumarium), cupgrass, woolly (woolly cupgrass, Eriochloa villosa), bermudagrass (Cynodon dactylon), sunflower, (common oilseed sunflower, Helianthus annuus), Russian thistle (Salsola kali), and velvetleaf (Abutilon theophrasti) were planted into a blend of loam soil and sand and treated preemergence with test chemicals formulated in a non-phytotoxic solvent mixture which included a surfactant.
At the same time, plants selected from these crop and weed species and also chickweed (common chickweed, Stellaria media), canarygrass (littleseed canarygrass, Phalaris minor), and deadnettle (henbit deadnettle, Lamium amplexicaule), were planted in pots containing Redi-Earth® planting medium (Scotts Company, 14111 Scottslawn Road, Marysville, Ohio 43041) comprising spaghnum peat moss, vermiculite, wetting agent and starter nutrients and treated with postemergence applications of test chemicals formulated in the same manner. Plants ranged in height from 2 to 18 cm (1- to 4-leaf stage) for postemergence treatments. Treated plants and controls were maintained in a greenhouse for 13 to 15 days, after which time all species were compared to controls and visually evaluated. Plant response ratings, summarized in Table C, are based on a scale of 0 to 100 where 0 is no effect and 100 is complete control. A dash (-) response means no test result.

[13] = Preemergence, 500 g ai/ha, 0 no effect, 100 complete control
[14] = preemergence, 125 g ai/ha, visual injury, approx. 10 days
[15] = Preemergence, 16 g ai/ha, scale 0 to 100
[16] = preemergence, 31 g ai/ha, scale 0 to 100 (0 no effect, 100 complete control), 13 to 15 days
[17] = preemergence, 62 g ai/ha, 13 to 15 days, scale 0 to 100, 0 = no effect, 100 = complete control
[18] = preemergence, 125 g ai/ha, scale 0 to 100, 0 is no effect, 100 is complete control
[19] = postemergence, 125 g ai/ha, scale 0 to 100, 0 no effect, 100 complete control
[20] = 125 g ai/ha, visual injury, 0 to 100 scale, approx. 10 days
[21] = 500 g ai/ha, visual injury after approx. 10 days, 0 to 100 scale (0 no effect, 100 complete control)
[22] = Postemergence, 500 g ai/ha, visual rating after approx. 10 days, 0 to 100 scale (0 no effect, 100 complete control)
[23] = postemergence, 125 g ai/ha, about 10 days, visual rating on 0 to 100 scale (0 no effect, 100 complete control)
[24] = 125 g ai/ha, scale 0 to 100, 0 no effect, 100 complete control
[25] = postemergence, 250 g ai/ha, scale 0 to 100 (0 no effect, 100 complete control)

SMILES | Plant response rating, Sedge, Umbrella [1] | Velvetleaf plant response rating [2, 13] | Velvetleaf plant response rating [2, 14] | Ragweed plant response rating [3, 16] | Plant response rating, Ragweed [3, 17] | Ragweed plant response rating [3, 18] | Blackgrass plant response rating ([4]; postemergence, 62 g ai/ha) | Plant response rating, Blackgrass [4, 19] | Wheat plant response rating [5, 20] | Wheat plant response rating [5, 21] | Corn plant response rating [6, 16] | Plant response rating, Corn [6, 17] | Corn plant response rating [6, 18] | Johnsongrass plant response rating [7, 16] | Johnsongrass plant response rating [7, 18] | Crabgrass, Large plant response rating ([8]; postemergence, 62 g ai/ha) | Plant response rating, Crabgrass, Large [8, 19] | Foxtail, Giant plant response rating [9, 22] | Foxtail, Giant plant response rating [9, 23] | Foxtail, Giant plant response rating ([10]; postemergence, 62 g ai/ha) | also measured
CCCNC(=O)c1cc(CC)n(Cc2ccnc(C(F)(F)F)c2)n1 [Compound 75] | 85 | 100 | 80 | 90 | 90 | 100 | 10 | 15 | 80 | 100 | 60 | 98 | 100 | 100 | 100 | 25 | 80 | 100 | 90 | 25 | Plant response rating, Ragweed [3, 15]: 70; Plant response rating (scale of 0 to 100), Blackgrass ([4]; Postemergence): 5; Blackgrass plant response rating ([4]; Postemergence, 31 g ai/ha): 5; Plant response rating, Corn [6, 15]: 10; Plant response rating, Johnsongrass [7, 15]: 65; Plant response rating, Johnsongrass [7, 17]: 100; Plant response rating (scale of 0 to 100), Crabgrass, Large ([8]; Postemergence): 20; Crabgrass, Large plant response rating ([8]; Postemergence, 31 g ai/ha): 20; Plant response rating (scale of 0 to 100), Foxtail, Giant ([10]; Postemergence): 15; Foxtail, Giant plant response rating ([10]; Postemergence, 31 g ai/ha): 20; Plant response rating, Foxtail, Giant [10, 19]: 50; Crabgrass, Large plant response rating [11, 13]: 100; Crabgrass, Large plant response rating [11, 14]: 100; Waterhemp plant response rating [12]: 45; Plant response rating, Waterhemp [12, 24]: 75
CCc1cc(C(=O)NC2CC2)nn1Cc1ccnc(C(F)(F)F)c1 [Compound 76] | 80 | 60 | 20 | 90 | 100 | 100 | 5 | 5 | 30 | 90 | 40 | 80 | 100 | 80 | 100 | 10 | 70 | 100 | 80 | 20 | Plant response rating (scale of 0 to 100), Ragweed ([3]; Preemergence, 250 g ai/ha): 100; Plant response rating (scale of 0 to 100 where 0 is no effect and 100 is complete control), Blackgrass ([4]; Postemergence, 31 g ai/ha): 5; Plant response rating, Blackgrass [4, 25]: 10; Plant response rating (scale of 0 to 100), Corn ([6]; Preemergence, 250 g ai/ha): 100; Plant response rating (scale of 0 to 100), Johnsongrass ([7]; Preemergence, 250 g ai/ha): 100; Plant response rating, Johnsongrass [7, 17]: 100; Plant response rating (scale of 0 to 100 where 0 is no effect and 100 is complete control), Crabgrass, Large ([8]; Postemergence, 31 g ai/ha): 5; Plant response rating, Crabgrass, Large [8, 25]: 70; Plant response rating (scale of 0 to 100 where 0 is no effect and 100 is complete control), Foxtail, Giant ([10]; Postemergence, 31 g ai/ha): 20; Plant response rating, Foxtail, Giant [10, 25]: 85; Plant response rating, Foxtail, Giant [10, 19]: 65; Crabgrass, Large plant response rating [11, 13]: 100; Crabgrass, Large plant response rating [11, 14]: 90; Plant response rating (scale of 0 to 100 where 0 is no effect and 100 is complete control), Waterhemp ([12]; Postemergence): 60; Waterhemp plant response rating [12]: 70; Plant response rating, Waterhemp ([12]; 250 g ai/ha, scale 0 to 100 (0 no effect, 100 complete control)): 100; Plant response rating, Waterhemp [12, 24]: 75
CCONC(=O)c1cc(CC)n(Cc2ccnc(C(F)(F)F)c2)n1 [Compound 77] | 80 | 80 | 20 | 35 | 70 | 85 | 5 | 5 | 20 | 40 | 0 | 15 | 55 | 45 | 70 | 10 | 20 | 100 | 90 | 10 | Plant response rating, Ragweed [3, 15]: 10; Plant response rating (scale of 0 to 100), Blackgrass ([4]; Postemergence): 0; Plant response rating (scale of 0 to 100 where 0 is no effect and 100 is complete control), Blackgrass ([4]; Postemergence, 31 g ai/ha): 5; Plant response rating, Corn [6, 15]: 0; Plant response rating, Johnsongrass [7, 15]: 10; Plant response rating (scale of 0 to 100), Crabgrass, Large ([8]; Postemergence): 5; Plant response rating (scale of 0 to 100 where 0 is no effect and 100 is complete control), Crabgrass, Large ([8]; Postemergence, 31 g ai/ha): 10; Plant response rating (scale of 0 to 100), Foxtail, Giant ([10]; Postemergence): 5; Plant response rating (scale of 0 to 100 where 0 is no effect and 100 is complete control), Foxtail, Giant ([10]; Postemergence, 31 g ai/ha): 5; Plant response rating, Foxtail, Giant [10, 19]: 20; Crabgrass, Large plant response rating [11, 13]: 100; Crabgrass, Large plant response rating [11, 14]: 100; Plant response rating (scale of 0 to 100), Waterhemp ([12]; Postemergence, 16 g ai/ha): 10; Plant response rating (scale of 0 to 100 where 0 is no effect and 100 is complete control), Waterhemp ([12]; Postemergence): 10; Waterhemp plant response rating [12]: 10; Plant response rating, Waterhemp [12, 24]: 65
